In US10081624B2, “Heterocyclic compound” (Takeda Pharmaceutical Company Limited, priority 2014, dated 2018):

Experiments:
[1] = target: T1, HDAC1 enzyme (Homo sapiens, UniProt Q13547); assay: HDAC1 enzyme inhibitory assay (HDAC-Glo I/II Assay kit); format: biochemical; conditions: 1 μM test compound; read-out: HDAC1 inhibitory rate (%) (1 μM)
T1 construct: prepared by transducing full length HDAC1 and HDAC6 genes into Sf-9 insect cells; GST; purchased SignalChem; host or cells: Sf-9 insect cells
Procedure, shortened: (§1)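 Sf-9-expressed GST-purified full-length HDAC1/HDAC6; cpd + enzyme 60 min RT, 24 mM Tris-HCl pH 7.5, 135 mM NaCl, 0.6 mM glutathione, 0.01% Tween-20; substrate-developer 20 min RT; luminescence; no-enzyme wells = 100% inhibition.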

[2] = target: T2, HDAC6 enzyme (Homo sapiens, UniProt Q9UBN7); assay: HDAC6 enzyme inhibitory assay (HDAC-Glo I/II Assay kit); format: biochemical; conditions: 1 μM test compound; for inhibition at 1 µM: read-out: HDAC6 inhibitory rate (%) (1 μM)
T2 construct: prepared by transducing full length HDAC1 and HDAC6 genes into Sf-9 insect cells; GST; purchased SignalChem; host or cells: Sf-9 insect cells
T2 sequence (Q9UBN7 1-1215): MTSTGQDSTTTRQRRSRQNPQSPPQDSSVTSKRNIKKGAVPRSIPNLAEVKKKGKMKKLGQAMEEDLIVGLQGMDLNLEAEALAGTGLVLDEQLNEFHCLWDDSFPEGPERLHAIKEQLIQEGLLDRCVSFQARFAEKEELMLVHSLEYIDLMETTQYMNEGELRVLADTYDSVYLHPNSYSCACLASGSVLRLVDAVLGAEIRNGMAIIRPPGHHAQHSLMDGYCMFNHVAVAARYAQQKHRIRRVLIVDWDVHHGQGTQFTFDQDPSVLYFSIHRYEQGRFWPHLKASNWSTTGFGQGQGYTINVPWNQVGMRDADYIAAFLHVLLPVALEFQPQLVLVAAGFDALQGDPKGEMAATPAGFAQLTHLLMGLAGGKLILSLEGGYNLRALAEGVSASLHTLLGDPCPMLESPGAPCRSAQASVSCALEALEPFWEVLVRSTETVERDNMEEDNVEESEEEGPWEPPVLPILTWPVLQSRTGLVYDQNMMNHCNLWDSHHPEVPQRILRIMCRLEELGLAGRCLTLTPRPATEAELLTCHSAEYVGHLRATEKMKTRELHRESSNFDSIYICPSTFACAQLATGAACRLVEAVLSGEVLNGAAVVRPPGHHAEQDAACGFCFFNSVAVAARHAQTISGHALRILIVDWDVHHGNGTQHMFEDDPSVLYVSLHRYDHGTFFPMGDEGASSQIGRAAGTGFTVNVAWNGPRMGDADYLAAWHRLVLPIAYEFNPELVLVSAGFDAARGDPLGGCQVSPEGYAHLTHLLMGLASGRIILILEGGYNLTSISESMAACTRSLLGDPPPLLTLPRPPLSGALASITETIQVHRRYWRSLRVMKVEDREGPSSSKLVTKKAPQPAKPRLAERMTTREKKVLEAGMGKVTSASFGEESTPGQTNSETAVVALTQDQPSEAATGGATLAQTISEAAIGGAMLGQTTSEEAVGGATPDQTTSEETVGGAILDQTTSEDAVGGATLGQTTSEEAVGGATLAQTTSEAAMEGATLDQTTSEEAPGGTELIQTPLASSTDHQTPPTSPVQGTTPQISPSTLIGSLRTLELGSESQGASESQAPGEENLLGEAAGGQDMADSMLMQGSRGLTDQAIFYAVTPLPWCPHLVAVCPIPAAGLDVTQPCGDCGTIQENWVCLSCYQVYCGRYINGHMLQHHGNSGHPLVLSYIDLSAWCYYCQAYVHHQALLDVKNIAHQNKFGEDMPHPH
Procedure, shortened: as §1

T1 sequence (Q13547 whole entry): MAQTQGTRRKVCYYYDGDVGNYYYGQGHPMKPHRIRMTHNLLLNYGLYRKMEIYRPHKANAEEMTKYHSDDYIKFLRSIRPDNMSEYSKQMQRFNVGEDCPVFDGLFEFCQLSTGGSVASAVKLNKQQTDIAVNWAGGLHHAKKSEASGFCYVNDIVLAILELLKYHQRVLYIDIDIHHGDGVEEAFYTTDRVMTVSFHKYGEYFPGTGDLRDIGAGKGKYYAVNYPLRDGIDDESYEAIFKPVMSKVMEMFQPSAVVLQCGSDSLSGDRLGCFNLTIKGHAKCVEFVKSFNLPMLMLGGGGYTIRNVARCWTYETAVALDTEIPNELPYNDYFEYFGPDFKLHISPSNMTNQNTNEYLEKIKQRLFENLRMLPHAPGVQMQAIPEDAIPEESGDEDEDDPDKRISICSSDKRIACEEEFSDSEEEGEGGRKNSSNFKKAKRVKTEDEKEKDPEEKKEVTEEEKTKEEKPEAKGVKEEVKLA

inhibition at 1 µM [1] [%] | inhibition at 1 µM [2] [%] | HDAC6 inhibitory rate (%) (1 μM) ([2]; 1 µM) | SMILES
50 | 99 |  | CCc1noc(C)c1C(=O)N1CCOCC1CNC(=O)c1ccc(-c2noc(C(F)(F)F)n2)cc1 (stereo in doubt) [Example 102, N-(((3S)-4-((3-ethyl-5-methyl-1,2-oxazol-4-yl)carbonyl)morpholin-3-yl)methyl)-4-(5-(trifluoromethyl)-1,2,4-oxadiazol-3-yl)benzamide]
32 | 101 |  | Cc1nnsc1C(=O)N1CCOC[C@@H]1CNC(=O)c1ccc(-c2noc(C(F)(F)F)n2)cc1 [Example 68, N-(((3S)-4-((4-methyl-1,2,3-thiadiazol-5-yl)carbonyl)morpholin-3-yl)methyl)-4-(5-(trifluoromethyl)-1,2,4-oxadiazol-3-yl)benzamide]
23 | 96 |  | O=C(NCC1COCCN1C(=O)c1ccccc1-c1ccccc1)c1ccc(-c2noc(C(F)(F)F)n2)cc1 (stereo not shown) [Example 32, N-((4-(biphenyl-2-ylcarbonyl)morpholin-3-yl)methyl)-4-(5-(trifluoromethyl)-1,2,4-oxadiazol-3-yl)benzamide]
2 | 95 |  | O=C(NC[C@H]1COCCN1C(=O)N1CCC[C@@H]1C(F)(F)F)c1ccc(-c2noc(C(F)(F)F)n2)cc1 [Example 286, 4-(5-(trifluoromethyl)-1,2,4-oxadiazol-3-yl)-N-(((3S)-4-(((2R)-2-(trifluoromethyl)pyrrolidin-1-yl)carbonyl)morpholin-3-yl)methyl)benzamide]
15 | 96 |  | Cn1cc2c(C(=O)N3CCOC[C@@H]3CNC(=O)c3ccc(-c4noc(C(F)(F)F)n4)cc3)cccc2n1 [Example 85, N-(((3S)-4-((2-methyl-2H-indazol-4-yl)carbonyl)morpholin-3-yl)methyl)-4-(5-(trifluoromethyl)-1,2,4-oxadiazol-3-yl)benzamide]
30 | 98 |  | O=C(NC[C@@H]1COCCN1C(=O)C1CCCCC1)c1ccc(-c2noc(C(F)(F)F)n2)s1 [Example 266, N-(((3R)-4-(cyclohexylcarbonyl)morpholin-3-yl)methyl)-5-(5-(trifluoromethyl)-1,2,4-oxadiazol-3-yl)thiophene-2-carboxamide]
20 | 102 |  | O=C(NCC1COCCN1C(=O)C1CCCCC1)c1ccc(-c2noc(C(F)(F)F)n2)cc1 (stereo not shown) [Example 25, N-((4-(cyclohexylcarbonyl)morpholin-3-yl)methyl)-4-(5-(trifluoromethyl)-1,2,4-oxadiazol-3-yl)benzamide]
14 |  | 101 | N#Cc1ccccc1C(=O)N1CCOC[C@@H]1CNC(=O)c1ccc(-c2noc(C(F)(F)F)n2)cc1 [Example 43, N-(((3S)-4-(2-cyanobenzoyl)morpholin-3-yl)methyl)-4-(5-(trifluoromethyl)-1,2,4-oxadiazol-3-yl)benzamide]
53 | 98 |  | CC(C)n1nccc1C(=O)N1CCOC[C@@H]1CNC(=O)c1ccc(-c2noc(C(F)(F)F)n2)cc1 [Example 84, N-(((3S)-4-((1-isopropyl-1H-pyrazol-5-yl)carbonyl)morpholin-3-yl)methyl)-4-(5-(trifluoromethyl)-1,2,4-oxadiazol-3-yl)benzamide]
20 | 98 |  | O=C(NCC1COCCN1C(=O)c1ccncc1)c1ccc(-c2noc(C(F)(F)F)n2)cc1 (stereo not shown) [Example 14, N-((4-isonicotinoylmorpholin-3-yl)methyl)-4-(5-(trifluoromethyl)-1,2,4-oxadiazol-3-yl)benzamide]
15 | 98 |  | CN(C(=O)N1CCOCC1CNC(=O)c1ccc(-c2noc(C(F)(F)F)n2)cc1)c1ccccc1 (stereo in doubt) [Example 98, (3S)-N-methyl-N-phenyl-3-(((4-(5-(trifluoromethyl)-1,2,4-oxadiazol-3-yl)benzoyl)amino)methyl)morpholine-4-carboxamide]
16 | 100 |  | Cc1ncsc1C(=O)N1CCOC[C@@H]1CNC(=O)c1ccc(-c2noc(C(F)(F)F)n2)cc1 [Example 69, N-(((3S)-4-((4-methyl-1,3-thiazol-5-yl)carbonyl)morpholin-3-yl)methyl)-4-(5-(trifluoromethyl)-1,2,4-oxadiazol-3-yl)benzamide]
77 | 99 |  | Cn1nc2ccccc2c1C(=O)N1CCOC[C@@H]1CNC(=O)c1ccc(-c2noc(C(F)(F)F)n2)cn1 [Example 184, N-(((3S)-4-((2-methyl-2H-indazol-3-yl)carbonyl)morpholin-3-yl)methyl)-5-(5-(trifluoromethyl)-1,2,4-oxadiazol-3-yl)pyridine-2-carboxamide]
3 | 97 |  | O=C(NC[C@H]1COCCN1C(=O)N1CCCOCC1)c1ccc(-c2noc(C(F)(F)F)n2)cc1 [Example 290, N-(((3S)-4-(1,4-oxazepan-4-ylcarbonyl)morpholin-3-yl)methyl)-4-(5-(trifluoromethyl)-1,2,4-oxadiazol-3-yl)benzamide]
31 | 92 |  | Cn1nc2ccccc2c1C(=O)N1CCOC[C@H]1CNC(=O)c1ccc(-c2noc(C(F)(F)F)n2)cc1 [Example 157, N-(((3R)-4-((2-methyl-2H-indazol-3-yl)carbonyl)morpholin-3-yl)methyl)-4-(5-(trifluoromethyl)-1,2,4-oxadiazol-3-yl)benzamide]
32 | 100 |  | O=C(NC[C@H]1COCCN1C(=O)c1ccnn1CCO)c1ccc(-c2noc(C(F)(F)F)n2)cc1 [Example 296, N-(((3S)-4-((1-(2-hydroxyethyl)-1H-pyrazol-5-yl)carbonyl)morpholin-3-yl)methyl)-4-(5-(trifluoromethyl)-1,2,4-oxadiazol-3-yl)benzamide]
20 | 99 |  | O=C(NC[C@@H]1COCCN1C(=O)C1CCCCC1)c1ccc(-c2noc(C(F)(F)F)n2)cc1 [Example 152, N-(((3R)-4-(cyclohexylcarbonyl)morpholin-3-yl)methyl)-4-(5-(trifluoromethyl)-1,2,4-oxadiazol-3-yl)benzamide]
18 | 100 |  | Cc1ccsc1C(=O)N1CCOC[C@@H]1CNC(=O)c1ccc(-c2noc(C(F)(F)F)n2)cc1 [Example 74, N-(((3S)-4-((3-methyl-2-thienyl)carbonyl)morpholin-3-yl)methyl)-4-(5-(trifluoromethyl)-1,2,4-oxadiazol-3-yl)benzamide]
19 | 99 |  | COc1cccc(C(=O)N2CCOCC2CNC(=O)c2ccc(-c3noc(C(F)(F)F)n3)cc2)c1 (stereo not shown) [Example 29, N-((4-(3-methoxybenzoyl)morpholin-3-yl)methyl)-4-(5-(trifluoromethyl)-1,2,4-oxadiazol-3-yl)benzamide]
38 | 100 |  | Cc1noc(C)c1C(=O)N1CCOC[C@@H]1CNC(=O)c1ccc(-c2noc(C(F)(F)F)n2)cc1 [Example 88, N-(((3S)-4-((3,5-dimethyl-1,2-oxazol-4-yl)carbonyl)morpholin-3-yl)methyl)-4-(5-(trifluoromethyl)-1,2,4-oxadiazol-3-yl)benzamide]
